Molecules are shown by their SMILES. pIC50: −log10 of the molar value. “And” between values parts separate entries of the source, which are not always exact repeats. Equal values may be shown once.

A word on the pIC50: it is −log10 of the IC50, conventionally taken in molar units. Low readings indicate a large IC50, high ones a small IC50.

What all share (assay): biochemical
Assay [1] deals with T1, CHEK1 (Homo sapiens, UniProt O14757).
T1 sequence (O14757 1-476): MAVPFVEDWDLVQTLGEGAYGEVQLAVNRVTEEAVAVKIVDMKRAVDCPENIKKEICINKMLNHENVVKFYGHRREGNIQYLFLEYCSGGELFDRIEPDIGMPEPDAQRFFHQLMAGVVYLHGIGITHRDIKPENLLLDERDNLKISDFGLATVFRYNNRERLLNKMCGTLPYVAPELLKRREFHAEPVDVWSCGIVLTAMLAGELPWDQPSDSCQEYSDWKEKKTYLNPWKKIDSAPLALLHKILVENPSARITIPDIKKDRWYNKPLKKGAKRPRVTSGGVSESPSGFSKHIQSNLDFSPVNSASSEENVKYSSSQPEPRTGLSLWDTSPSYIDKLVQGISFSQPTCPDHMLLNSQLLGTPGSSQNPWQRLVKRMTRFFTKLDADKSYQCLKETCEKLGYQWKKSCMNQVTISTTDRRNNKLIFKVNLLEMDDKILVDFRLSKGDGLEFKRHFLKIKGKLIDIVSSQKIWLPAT

Assay [2] deals with ERN1 (Homo sapiens, UniProt O75460).
Assay [3] addresses IRAK1 (Homo sapiens, UniProt P51617).
Assay [4] concerns the target MAST3 (Homo sapiens, UniProt O60307).
Assay [5] concerns the target NEK6 (Homo sapiens, UniProt Q9HC98).
The target of assay [6] is T2, PIP4K2B (Homo sapiens, UniProt P78356).
T2 sequence (P78356 1-416): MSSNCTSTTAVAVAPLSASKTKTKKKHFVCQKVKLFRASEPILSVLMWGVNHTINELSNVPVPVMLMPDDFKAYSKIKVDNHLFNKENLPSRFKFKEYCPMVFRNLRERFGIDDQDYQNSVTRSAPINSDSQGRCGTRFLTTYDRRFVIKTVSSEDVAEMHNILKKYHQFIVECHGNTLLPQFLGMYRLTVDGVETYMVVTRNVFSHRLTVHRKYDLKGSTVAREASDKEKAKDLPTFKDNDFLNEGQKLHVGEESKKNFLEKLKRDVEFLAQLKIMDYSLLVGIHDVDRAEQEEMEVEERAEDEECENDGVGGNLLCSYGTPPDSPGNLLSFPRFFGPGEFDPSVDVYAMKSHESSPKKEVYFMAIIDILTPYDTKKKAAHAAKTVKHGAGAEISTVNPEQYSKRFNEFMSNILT

In assay [7] the target is TNK2 (Homo sapiens, UniProt Q07912).
The target of assay [8] is MAP2K3 (Homo sapiens, UniProt P46734).
Assay [9] has as its target MAP3K5 (Homo sapiens, UniProt Q99683).
The target of assay [10] is T3, TAOK3 (Homo sapiens, UniProt Q9H2K8).
T3 sequence (Q9H2K8 1-898): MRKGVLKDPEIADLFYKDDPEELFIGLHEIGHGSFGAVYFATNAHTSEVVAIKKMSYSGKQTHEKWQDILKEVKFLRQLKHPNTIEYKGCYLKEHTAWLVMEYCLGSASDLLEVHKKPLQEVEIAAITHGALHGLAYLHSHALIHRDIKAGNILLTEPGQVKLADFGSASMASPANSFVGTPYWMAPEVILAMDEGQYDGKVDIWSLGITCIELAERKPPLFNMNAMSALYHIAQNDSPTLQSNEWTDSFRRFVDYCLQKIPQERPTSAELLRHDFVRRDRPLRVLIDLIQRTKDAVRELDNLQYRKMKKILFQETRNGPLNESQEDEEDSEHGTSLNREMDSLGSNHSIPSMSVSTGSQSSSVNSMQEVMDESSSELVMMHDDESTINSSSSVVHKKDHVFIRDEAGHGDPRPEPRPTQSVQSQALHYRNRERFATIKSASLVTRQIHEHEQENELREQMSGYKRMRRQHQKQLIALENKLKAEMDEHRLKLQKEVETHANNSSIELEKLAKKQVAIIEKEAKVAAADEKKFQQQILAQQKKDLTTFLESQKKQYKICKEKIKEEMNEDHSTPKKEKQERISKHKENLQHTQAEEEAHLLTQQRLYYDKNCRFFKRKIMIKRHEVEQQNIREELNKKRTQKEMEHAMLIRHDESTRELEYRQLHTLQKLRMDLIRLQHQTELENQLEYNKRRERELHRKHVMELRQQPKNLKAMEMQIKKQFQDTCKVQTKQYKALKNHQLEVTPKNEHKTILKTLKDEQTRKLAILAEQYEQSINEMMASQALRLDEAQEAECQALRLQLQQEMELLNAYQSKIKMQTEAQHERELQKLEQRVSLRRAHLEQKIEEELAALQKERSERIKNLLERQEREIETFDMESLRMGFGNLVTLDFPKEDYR

Assay [11] deals with T4, TGFBR1 (Homo sapiens, UniProt P36897).
T4 sequence (P36897 1-503): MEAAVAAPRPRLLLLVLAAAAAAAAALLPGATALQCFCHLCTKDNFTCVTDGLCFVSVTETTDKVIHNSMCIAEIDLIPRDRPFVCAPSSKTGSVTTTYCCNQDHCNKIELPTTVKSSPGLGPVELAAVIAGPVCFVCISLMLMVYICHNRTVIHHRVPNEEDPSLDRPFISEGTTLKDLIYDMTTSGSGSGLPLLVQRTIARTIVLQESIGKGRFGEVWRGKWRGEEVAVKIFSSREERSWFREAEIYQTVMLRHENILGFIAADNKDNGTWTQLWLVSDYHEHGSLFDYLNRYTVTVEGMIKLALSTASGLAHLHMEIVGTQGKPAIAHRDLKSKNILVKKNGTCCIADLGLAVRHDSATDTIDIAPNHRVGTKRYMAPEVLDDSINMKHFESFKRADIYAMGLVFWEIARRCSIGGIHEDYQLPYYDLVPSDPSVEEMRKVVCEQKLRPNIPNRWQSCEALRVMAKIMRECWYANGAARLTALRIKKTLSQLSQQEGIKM

Sequence of IRAK1 (P51617 whole entry): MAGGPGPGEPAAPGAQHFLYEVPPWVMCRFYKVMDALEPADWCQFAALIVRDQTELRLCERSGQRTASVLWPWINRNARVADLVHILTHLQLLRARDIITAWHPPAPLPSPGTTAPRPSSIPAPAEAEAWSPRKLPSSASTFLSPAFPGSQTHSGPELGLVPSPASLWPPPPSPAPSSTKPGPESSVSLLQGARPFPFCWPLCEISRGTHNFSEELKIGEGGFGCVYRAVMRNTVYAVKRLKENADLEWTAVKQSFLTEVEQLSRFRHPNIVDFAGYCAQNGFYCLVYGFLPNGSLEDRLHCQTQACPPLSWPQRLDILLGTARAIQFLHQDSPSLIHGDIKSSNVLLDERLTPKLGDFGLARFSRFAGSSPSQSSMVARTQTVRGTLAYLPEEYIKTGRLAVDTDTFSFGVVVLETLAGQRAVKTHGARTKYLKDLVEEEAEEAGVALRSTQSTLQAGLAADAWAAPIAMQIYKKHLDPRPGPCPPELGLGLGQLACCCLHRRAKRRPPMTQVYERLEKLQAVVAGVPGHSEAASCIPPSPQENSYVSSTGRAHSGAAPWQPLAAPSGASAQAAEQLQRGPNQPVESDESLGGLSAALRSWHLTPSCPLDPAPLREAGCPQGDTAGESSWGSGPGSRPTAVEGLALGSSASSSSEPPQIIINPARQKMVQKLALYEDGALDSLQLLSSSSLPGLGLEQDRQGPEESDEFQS
Sequence of MAP2K3 (P46734 whole entry): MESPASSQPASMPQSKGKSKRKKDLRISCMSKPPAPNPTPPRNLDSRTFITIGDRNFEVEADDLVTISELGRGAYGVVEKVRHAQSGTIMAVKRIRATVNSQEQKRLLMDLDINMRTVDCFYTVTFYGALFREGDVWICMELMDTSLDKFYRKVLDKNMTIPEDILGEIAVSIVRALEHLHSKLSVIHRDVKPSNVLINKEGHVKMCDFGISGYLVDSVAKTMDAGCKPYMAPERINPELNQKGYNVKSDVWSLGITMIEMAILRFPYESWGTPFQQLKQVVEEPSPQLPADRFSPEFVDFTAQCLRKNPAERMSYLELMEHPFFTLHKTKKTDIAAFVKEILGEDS
Sequence of NEK6 (Q9HC98 whole entry): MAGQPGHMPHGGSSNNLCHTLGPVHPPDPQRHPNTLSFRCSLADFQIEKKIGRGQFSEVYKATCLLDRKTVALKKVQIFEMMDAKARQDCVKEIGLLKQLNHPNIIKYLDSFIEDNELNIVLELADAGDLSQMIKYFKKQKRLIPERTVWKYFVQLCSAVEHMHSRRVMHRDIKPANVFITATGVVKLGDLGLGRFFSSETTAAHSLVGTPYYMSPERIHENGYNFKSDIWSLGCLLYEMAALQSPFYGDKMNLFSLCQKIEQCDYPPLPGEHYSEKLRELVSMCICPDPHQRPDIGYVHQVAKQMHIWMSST
Sequence of ERN1 (O75460 whole entry): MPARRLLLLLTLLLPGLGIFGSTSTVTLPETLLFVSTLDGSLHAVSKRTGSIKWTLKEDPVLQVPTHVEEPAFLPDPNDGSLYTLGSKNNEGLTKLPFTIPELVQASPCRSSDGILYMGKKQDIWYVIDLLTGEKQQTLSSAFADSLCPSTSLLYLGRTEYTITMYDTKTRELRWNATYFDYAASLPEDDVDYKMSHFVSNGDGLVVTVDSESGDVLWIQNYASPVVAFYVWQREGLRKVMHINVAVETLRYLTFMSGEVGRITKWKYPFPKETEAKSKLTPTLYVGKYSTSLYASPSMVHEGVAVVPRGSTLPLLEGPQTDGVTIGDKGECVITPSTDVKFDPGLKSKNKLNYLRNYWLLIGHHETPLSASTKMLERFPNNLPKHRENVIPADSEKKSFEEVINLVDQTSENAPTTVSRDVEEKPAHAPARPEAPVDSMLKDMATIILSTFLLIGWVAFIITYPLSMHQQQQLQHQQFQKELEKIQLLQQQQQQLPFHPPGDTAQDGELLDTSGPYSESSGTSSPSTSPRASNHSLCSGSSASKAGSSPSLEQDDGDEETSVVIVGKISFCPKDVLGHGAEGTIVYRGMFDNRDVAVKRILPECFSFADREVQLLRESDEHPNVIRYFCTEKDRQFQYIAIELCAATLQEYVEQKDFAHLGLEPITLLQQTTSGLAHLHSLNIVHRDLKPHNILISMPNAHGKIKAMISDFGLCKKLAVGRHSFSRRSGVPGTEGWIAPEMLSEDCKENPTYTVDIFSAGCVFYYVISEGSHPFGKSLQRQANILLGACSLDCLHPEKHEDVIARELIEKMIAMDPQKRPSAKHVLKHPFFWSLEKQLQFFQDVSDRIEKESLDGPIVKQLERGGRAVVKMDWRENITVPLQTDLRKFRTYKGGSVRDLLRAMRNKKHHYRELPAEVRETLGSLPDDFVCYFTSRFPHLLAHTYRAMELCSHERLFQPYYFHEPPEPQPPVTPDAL
Sequence of MAP3K5 (Q99683 whole entry): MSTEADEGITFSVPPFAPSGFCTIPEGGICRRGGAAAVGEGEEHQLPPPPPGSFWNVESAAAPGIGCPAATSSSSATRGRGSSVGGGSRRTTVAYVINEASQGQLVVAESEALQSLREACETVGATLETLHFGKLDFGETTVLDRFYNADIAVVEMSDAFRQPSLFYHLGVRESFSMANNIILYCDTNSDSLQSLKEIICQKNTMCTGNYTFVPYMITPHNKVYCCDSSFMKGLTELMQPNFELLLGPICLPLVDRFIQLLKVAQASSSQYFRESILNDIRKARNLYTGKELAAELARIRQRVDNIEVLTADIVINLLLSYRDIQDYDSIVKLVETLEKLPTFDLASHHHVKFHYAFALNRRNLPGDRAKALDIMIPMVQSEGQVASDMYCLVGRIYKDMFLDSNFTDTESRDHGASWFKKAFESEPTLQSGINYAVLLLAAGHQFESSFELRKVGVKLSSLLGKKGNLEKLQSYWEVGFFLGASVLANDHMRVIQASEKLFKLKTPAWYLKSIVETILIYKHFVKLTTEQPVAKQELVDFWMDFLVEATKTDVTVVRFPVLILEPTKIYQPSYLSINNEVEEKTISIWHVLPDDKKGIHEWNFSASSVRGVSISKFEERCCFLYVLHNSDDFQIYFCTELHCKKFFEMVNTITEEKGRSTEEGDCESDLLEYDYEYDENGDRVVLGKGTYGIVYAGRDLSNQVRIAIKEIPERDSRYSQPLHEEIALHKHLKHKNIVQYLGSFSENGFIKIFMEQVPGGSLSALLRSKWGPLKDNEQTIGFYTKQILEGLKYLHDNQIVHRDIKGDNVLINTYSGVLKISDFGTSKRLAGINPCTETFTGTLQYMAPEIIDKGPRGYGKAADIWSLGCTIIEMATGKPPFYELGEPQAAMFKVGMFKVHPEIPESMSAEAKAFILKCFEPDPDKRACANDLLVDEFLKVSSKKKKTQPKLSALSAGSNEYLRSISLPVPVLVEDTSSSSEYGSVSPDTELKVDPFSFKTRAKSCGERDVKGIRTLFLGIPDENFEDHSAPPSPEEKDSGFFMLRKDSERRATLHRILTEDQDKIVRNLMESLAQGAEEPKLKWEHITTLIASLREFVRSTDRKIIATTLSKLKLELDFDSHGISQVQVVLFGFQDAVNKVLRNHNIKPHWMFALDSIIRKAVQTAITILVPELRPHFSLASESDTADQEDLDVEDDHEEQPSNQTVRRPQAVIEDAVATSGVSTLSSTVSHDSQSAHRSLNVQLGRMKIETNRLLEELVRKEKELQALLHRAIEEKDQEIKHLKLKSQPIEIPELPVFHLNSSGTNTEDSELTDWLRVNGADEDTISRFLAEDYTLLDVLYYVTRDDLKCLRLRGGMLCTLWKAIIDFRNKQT
Sequence of MAST3 (O60307 whole entry): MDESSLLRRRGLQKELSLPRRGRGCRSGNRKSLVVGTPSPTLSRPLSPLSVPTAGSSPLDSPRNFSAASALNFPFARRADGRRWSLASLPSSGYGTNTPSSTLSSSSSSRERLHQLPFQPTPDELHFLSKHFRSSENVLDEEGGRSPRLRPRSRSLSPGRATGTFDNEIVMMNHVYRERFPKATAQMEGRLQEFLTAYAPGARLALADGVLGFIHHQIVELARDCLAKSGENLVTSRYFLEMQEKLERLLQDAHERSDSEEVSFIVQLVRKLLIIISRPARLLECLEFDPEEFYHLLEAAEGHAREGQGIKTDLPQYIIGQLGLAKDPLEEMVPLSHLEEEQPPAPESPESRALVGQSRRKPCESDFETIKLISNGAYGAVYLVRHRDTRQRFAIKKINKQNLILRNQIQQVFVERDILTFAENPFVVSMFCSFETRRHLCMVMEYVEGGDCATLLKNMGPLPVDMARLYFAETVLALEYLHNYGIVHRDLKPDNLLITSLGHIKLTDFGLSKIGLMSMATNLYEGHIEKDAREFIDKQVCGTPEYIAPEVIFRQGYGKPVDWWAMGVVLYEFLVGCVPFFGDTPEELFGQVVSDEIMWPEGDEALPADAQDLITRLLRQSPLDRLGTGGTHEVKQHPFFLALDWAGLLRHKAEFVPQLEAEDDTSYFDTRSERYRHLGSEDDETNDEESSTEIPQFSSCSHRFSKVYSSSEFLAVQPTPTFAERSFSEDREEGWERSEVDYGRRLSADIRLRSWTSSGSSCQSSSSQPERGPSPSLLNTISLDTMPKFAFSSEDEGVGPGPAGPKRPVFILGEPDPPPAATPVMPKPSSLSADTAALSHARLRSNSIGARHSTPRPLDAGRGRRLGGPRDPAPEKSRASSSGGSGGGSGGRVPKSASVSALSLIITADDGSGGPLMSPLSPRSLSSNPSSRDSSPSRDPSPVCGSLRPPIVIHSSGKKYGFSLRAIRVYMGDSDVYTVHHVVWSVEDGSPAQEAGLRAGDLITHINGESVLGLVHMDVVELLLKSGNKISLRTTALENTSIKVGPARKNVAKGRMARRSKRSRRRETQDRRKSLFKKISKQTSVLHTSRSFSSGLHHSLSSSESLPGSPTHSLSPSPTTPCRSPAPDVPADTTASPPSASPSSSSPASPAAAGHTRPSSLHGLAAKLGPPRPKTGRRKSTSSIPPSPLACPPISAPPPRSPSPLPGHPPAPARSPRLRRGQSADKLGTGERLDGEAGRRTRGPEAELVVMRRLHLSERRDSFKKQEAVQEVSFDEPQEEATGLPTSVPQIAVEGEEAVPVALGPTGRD

Regarding `CN1CCN(c2ccc(Nc3ncc(C#N)c(Nc4ccccc4C(N)=O)n3)cc2)CC1.Cl` [TCMDC-134116], the pIC50 in assay [1] is 6.66; in assay [2], 6.77; in assay [3], 6.80 and 6.85; in assay [4], 6.80; in assay [5], 6.59; in assay [6], 5.80 and 6.00. Also, in assay [7], the negative logarithm of the IC50 (pIC50) is 6.80.
Take `Cl.NCC1(c2nc(-c3ccc(Cl)c(O)c3)c(-c3ccncc3)[nH]2)CCCCC1` [TCMDC-141154]: the negative logarithm of the IC50 (pIC50) in assay [1], in assay [3], in assay [8], in [9], in [4] and in [5] was under 4.70 throughout. Moreover, the pIC50 in assay [10] was 5.74 and 6.04; in assay [11], 7.02 and 6.85; in assay [7], under 4.70.
As for `CN(C)CC(O)COc1ccc(Nc2ncc([N+](=O)[O-])c(Nc3ccccc3O)n2)cc1.O=C(O)C(F)(F)F` (stereo not shown) [TCMDC-141399], the pIC50 in [2] is under 4.70; in assay [8] it was under 4.70; in assay [9], under 4.70; in [6], 6.01; in [10] it was under 4.70; in assay [11], under 4.70.
